Data set [1] is described as follows: Light stability test (Test Example 4). It is filed as physicochemical. To be noted: direct sunlight between glass plates, 12° C., relative to aluminum foil-covered control; for remaining at 4 h: read-out: Residue (%) Exposure time 4 hrs.; for remaining at 8 h: read-out: Residue (%) Exposure time 8 hrs. The protocol: Into 2.0 ml of acetone were dissolved 80 mg of each test compound. A 5 μl portion of the solution was taken and spread on a glass plate (Micro Standard Cover Glass, 18 m/m No. 1, 200 pcs, Matsunami Glass Ind., Ltd.) and the acetone was evaporated. Then, a similar glass plate was superimposed on the above plate in such a manner that the test liquid was sandwitched. The specimen was exposed to direct sunlight at an atmospheric temperature of 12° C. for a predetermined exposure time. As an unexposed control, a similar specimen was covered with an aluminum foil. The test liquid was washed away with 1.0 ml of methanol containing 0.04% of dioctyl phthalate as an internal reference and high-speed liquid chromatography was carried out on the washings to determine the residual amount of the test compound. The residue (%) was calculated with the value for the aluminum foil-covered control specimen as the standard.

In the next data set the test system is guppies. Description: Fish toxicity test (Test Example 6). To be noted: female guppies, 48 hours, 25° C.; concentration at which 90% or more were killed. It is filed as in vivo. The protocol: To 5 l of water were added 250 mg of sorpol SM-200 (registered trademark, Toho Chemical Co., Ltd.) or Tween-20 (commercial product) as an emulsifier (surfactant) as well as 2.5 ml of an acetone solution containing one of the test compounds in a predetermined concentration. The mixture was stirred well to prepare a test water. Ten female guppies from 3 to 4 months of age were released into the test water and maintained at 25° C. The concentration of the test compound at which 90% or more of the guppies were killed during the ensuring 48 hours was determined. (This concentration is referred to as LC90).

Data set [2] deals with houseflies (Musca domestica). In words: Mortality test against houseflies by topical application method (Test Example 1). Type of data set: in vivo. Conditions: female adult houseflies, 24 hours, 25° C. The protocol: Each test compound was accurately weighed and a 1% solution and a 0.1% solution of the sample in acetone were prepared. A 1 μl portion of either of the above solutions was micropipetted onto the thoracic dorsal part of each female adult housefly (Musca domestica) under ether anaesthesia and the fly was released in a high-walled dish together with feed. The dish was covered with a metal-wire net and maintained at 25° C. After 24 hours, the test flies were inspected for deaths and the mortality (%) was calculated. Thirty test flies were used per concentration group.

The nature of data set [3]: Hydrolysis resistance test (Test Example 5). Type of data set: physicochemical. To be noted: acetone/water, reflux for 2 days; read-out: Residue (%). The protocol: Into about 8 ml of acetone were dissolved 100 mg of each test compound and, then, 1.0 g of water was added to this solution to prepare a mixed solution. This mixed solution was refluxed for 2 days. After concentration to about one half of the original volume and with the addition of dioctyl phthalate as an internal reference, the residual amount of the compound was determined by high-speed liquid chromatography. The residue (%) was then calculated.

Data set [4] concerns cockroaches (Blattella germanica). In words: Mortality test against cockroaches by topical application method (Test Example 3). Type of data set: in vivo. Conditions: 1 μl of 1% solution in acetone, female cockroaches, 24 hours, 25° C. The method, then:
Each test compound was accurately weighed and made in a 1% solution in acetone. Then, 1 μl of the above solution was micropipetted onto the abdominal part of each female cockroach (Blattella germanica) under ether anaesthesia. The roaches were released in a high-walled dish together with feed and, after the disk was covered with a metal wire net, same was maintained at 25° C. Fifteen roaches per group were employed. After 24 hours, the test roaches were inspected for deaths and the mortality (%) for each group was calculated.

The next data set concerns green rice leafhoppers. Description: Spray test on rice seedlings against green rice leafhoppers (Utility Example 1). To be noted: 30% emulsifiable concentrate (Formulation Example 5) diluted 300-fold, 10 ml/pot, 24 hours. It is filed as in vivo, green rice leafhoppers (Nephotettix cincticeps). The protocol: To 30 parts of each of Compounds [1], [2], [5] to [13] and [17] to [19] was added 50 parts of xylene and 20 parts of Sorpol SM-200 (a surfactant, trademark of Toho Chemical Co., Ltd.). The mixture was stirred well and dissolved to obtain a 30% emulsifiable concentrate.
The emulsifiable concentrate prepared from Compounds [1], [2], [6], [7], [9], [10], [12] and [13] in Formulation Example 5 were each diluted 300-fold with water. Then, each of the dilutions was sprayed over rice seedlings 25 days after sowing at the rate of 10 ml/pot. The pot was covered with a wire-net and 15 green rice leafhoppers were released under the net. After 24 hours, the leafhoppers were examined for deaths. The mortality (%) was not less than 90% for each of Compounds [1], [2], [6], [7], [9], [10], [12] and [13].

A further data set has as its system house-flies. Description: Settling mist mortality test against houseflies, oil preparations of Formulation Example 3 (Utility Example 4). Conditions: oil preparation with 0.1 part compound and 0.08 part permethrin per 100 parts, 24 hours. Type of data set: in vivo, houseflies (Musca domestica). The protocol: To 0.1 part of each of Compounds [1] to [28] was added 0.08 part of permethrin, followed by the addition of a sufficient amount of kerosene to make 100 parts. The mixture was stirred to obtain an oil preparation of each compound.
By the settling mist method, a mortality test against house-flies was carried out using the oil preparations obtained in Formulation Example 3 from Compounds [1], [2], [5] to [11] and [17]. After 24 hours, the flies were examined for deaths. The mortality (%) was not less than 90% for each of Compounds [1], [2], [5] to [11] and [17].

The next data set has as its system houseflies. In words: Settling mist mortality test against houseflies, oil preparations of Formulation Example 2 (Utility Example 3). To be noted: oil preparation with 0.1 part compound and 0.1 part resmethrin per 100 parts, 24 hours. It is filed as in vivo, houseflies (Musca domestica). The method, then: To 0.1 part of each of Compounds [1] to [17] was added 0.1 part of resmethrin, followed by the addition of a sufficient amount of kerosene to make 100 parts. The mixture was stirred to obtain an oil preparation of each compound.
By the settling mist method, a mortality test against houseflies was carried out using the oil preparations made in Formulation Example 2 from Compounds [1], [2], [5] to [11] and [17]. After 24 hours, the flies were examined for deaths. The mortality (%) was not less than 90% for each of Compounds [1], [2], [5] to [11] and [17].

For data set [5], the system named is green rice leafhoppers (Nephotettix cincticeps). Description: Mortality test against green rice leafhoppers by topical application method (Test Example 2). It is filed as in vivo. To be noted: 0.1% solution in acetone, female adults, 24 hours, 25° C. The method, then: Each test compound was accurately weighed and an 0.1% solution in acetone was prepared. Female adults of green rice leafhopper (Nephotettix cincticeps) were anaesthetized with carbon dioxide gas and 0.5 µl of the above solution was micropipetted onto the thoracic abdominal part of each leafhopper. Then, the test leafhoppers were kept at 25° C. with access to rice plant seedlings. Each group comprised 15 green rice leafhoppers. After 24 hours, the leafhoppers were inspected for deaths and the mortality (%) was calculated for each compound.

As for `C=CCC1=C(C)C(OC(=O)C2C(C=C(C)C)C2(C)C)CC1=O` (stereo not drawn) [Allethrin, reference compound], in data set [1], the remaining at 4 h came out at 35% and the remaining at 8 h was 17%. For the same compound, the LC90 entry in the data set on guppies is “Not more than 0.5 ppm”. In [2], the “Mortality (%) 1 μg/fly” value is recorded as 50%.
Take `CC(C)C(CC=C(Cl)Cl)C(=O)OCc1cccc(Oc2ccccc2)c1` (stereo not drawn) [Compound [5], 3-Phenoxybenzyl α-(3,3-dichloroallyl)isovalerate]: in data set [1], the remaining at 4 h worked out at 99% and the remaining at 8 h came to 98%. Moreover, in data set [2], the “Mortality (%) 1 μg/fly” value is listed as 100% and the “Mortality (%) 10 μg/fly” value is reported as 100%.
Usually mortality stands for the share of the test organisms that died. Low values mean more survivors, high ones fewer survivors. `CC(C)C(CC=C(Cl)Cl)C(=O)OC(C#N)c1cccc(Oc2ccccc2)c1` (stereo not drawn) [Compound [6], α-Cyano-3-phenoxybenzyl α-(3,3-dichloroallyl)isovalerate]: the remaining at 48 h in data set [3] is above 90%. In [4], this compound displayed a mortality at 1 %, 0.01 mg of 100%. Further, in [1], the remaining at 4 h amounted to 92% and the remaining at 8 h amounted to 92%. Also, in the data set on green rice leafhoppers, the “Mortality (%)” value is on record as “not less than 90%”. In addition, in data set [2], the “Mortality (%) 1 μg/fly” value was found to be 100% and the “Mortality (%) 10 μg/fly” value came out at 100%.
`C#CC(OC(=O)C(CC=C(Cl)Cl)C(C)C)c1cccc(Oc2ccccc2)c1` (stereo not drawn) [Compound [7], α-Ethynyl-3-phenoxybenzyl α-(3,3-dichloroallyl)isovalerate]: the remaining at 48 h in data set [3] was above 90%. Further, in [4], the mortality at 1 %, 0.01 mg is 80%. Further, in [1], the remaining at 4 h came out at 96% and the remaining at 8 h came to 96%. Further, the “Mortality (%)” value in the data set with green rice leafhoppers is on record as “not less than 90%”. In addition, in data set [2], the “Mortality (%) 1 μg/fly” value is 90% and the “Mortality (%) 10 μg/fly” value is 100%.
On to `CC(C)C(CC=C(Br)Br)C(=O)OCc1cccc(Oc2ccccc2)c1` (stereo not drawn) [Compound [8], 3-Phenoxybenzyl α-(3,3-dibromoallyl)isovalerate], for which, in [2], the “Mortality (%) 1 μg/fly” value is reported as 100% and the “Mortality (%) 10 μg/fly” value stood at 100%.
For the compound `CC(C)C(CC=C(Br)Br)C(=O)OC(C#N)c1cccc(Oc2ccccc2)c1` (stereo not drawn) [Compound [9], α-Cyano-3-phenoxybenzyl α-(3,3-dibromoallyl)isovalerate], in the data set on green rice leafhoppers, the “Mortality (%)” value was “not less than 90%”. In data set [2], the “Mortality (%) 1 μg/fly” value is 100% and the “Mortality (%) 10 μg/fly” value is 100%.
Consider `C#CC(OC(=O)C(CC=C(Br)Br)C(C)C)c1cccc(Oc2ccccc2)c1` (stereo not drawn) [Compound [10], α-Ethynyl-3-phenoxybenzyl α-(3,3-dibromoallyl)isovalerate], for which, in [1], the remaining at 4 h came out at 97% and the remaining at 8 h came to 97%. The “Mortality (%)” value with green rice leafhoppers is “not less than 90%”. This compound also returned an LC90 with guppies of at least 10 ppm. In data set [2], the “Mortality (%) 1 μg/fly” value came to 100% and the “Mortality (%) 10 μg/fly” value turned out to be 100%.
Take `CC(C)(CC=C(Cl)Cl)CC(=O)OCc1cccc(Oc2ccccc2)c1` [Compound [11], 3-Phenoxybenzyl β-(3,3-dichloroallyl)isovalerate]: the remaining at 48 h in data set [3] was above 90%. In data set [1], the remaining at 4 h came to 100% and the remaining at 8 h stood at 96%. For the same compound, in [2], the “Mortality (%) 1 μg/fly” value is recorded as 100% and the “Mortality (%) 10 μg/fly” value worked out at 100%.
Regarding `CC(C)(CC=C(Cl)Cl)CC(=O)OC(C#N)c1cccc(Oc2ccccc2)c1` (stereo not drawn) [Compound [12], α-Cyano-3-phenoxybenzyl β-(3,3-dichloroallyl)isovalerate], the remaining at 48 h in [3] is above 90%. In [1], the remaining at 4 h worked out at 92% and the remaining at 8 h was found to be 90%. Further, in the data set with green rice leafhoppers, the “Mortality (%)” value was “not less than 90%”. Besides, in data set [2], the “Mortality (%) 1 μg/fly” value is recorded as 100% and the “Mortality (%) 10 μg/fly” value was determined as 100%.
Turning to `C#CC(OC(=O)CC(C)(C)CC=C(Cl)Cl)c1cccc(Oc2ccccc2)c1` (stereo not drawn) [Compound [13], α-Ethynyl-3-phenoxybenzyl β-(3,3-dichloroallyl)isovalerate], in [1], the remaining at 4 h came out at 100% and the remaining at 8 h amounted to 100%. Moreover, the “Mortality (%)” value with green rice leafhoppers is reported as “not less than 90%”. Also, in [2], the “Mortality (%) 1 μg/fly” value is 90% and the “Mortality (%) 10 μg/fly” value was 100%.
For `CC(C)(CC(=O)OCc1cccc(Oc2ccccc2)c1)C(Cl)C=C(Cl)Cl` (stereo not drawn) [Compound [17], 3-Phenoxybenzyl β-(1,3,3-trichloroallyl)isovalerate], in the data set with house-flies, the “Mortality (%)” value is listed as “not less than 90%”. In addition, in data set [1], the remaining at 4 h was found to be 100% and the remaining at 8 h amounted to 100%. Also, in [2], the “Mortality (%) 1 μg/fly” value worked out at 100% and the “Mortality (%) 10 μg/fly” value is recorded as 100%. In addition, in the data set with houseflies, the “Mortality (%)” value was “not less than 90%”.
For `CC(C)(CC(=O)OC(C#N)c1cccc(Oc2ccccc2)c1)C(Cl)C=C(Cl)Cl` (stereo not drawn) [Compound [18], α-Cyano-3-phenoxybenzyl β-(1,3,3-trichloroallyl)isovalerate], the remaining at 48 h in [3] was above 90%. Moreover, in [1], the remaining at 4 h is 98% and the remaining at 8 h is 97%. Besides, the “Mortality (%) 10 μg/fly” value in data set [2] turned out to be 100%.
For the compound `C#CC(OC(=O)CC(C)(C)C(Cl)C=C(Cl)Cl)c1cccc(Oc2ccccc2)c1` (stereo not drawn) [Compound [19], α-Ethynyl-3-phenoxybenzyl β-(1,3,3-trichloroallyl)isovalerate], in data set [1], the remaining at 4 h was determined as 97% and the remaining at 8 h was 92%. Further, the “Mortality (%) 10 μg/fly” value in [2] is 100%.
With `C=CCC(C(=O)OCc1cccc(Oc2ccccc2)c1)C(C)C` (stereo not drawn) [reference compound], in data set [2], the “Mortality (%) 1 μg/fly” value was found to be 0% and the “Mortality (%) 10 μg/fly” value is reported as 0%.
Take `CC(C)=CCC(C(=O)OCc1cccc(Oc2ccccc2)c1)C(C)C` (stereo not drawn) [reference compound]: the “Mortality (%) 1 μg/fly” value in [2] came to 0%.
Take `CC(C)C(C=C(Cl)Cl)C(=O)OCc1cccc(Oc2ccccc2)c1` (stereo not drawn) [reference compound]: the mortality at 0.1 % in data set [5] was 40%.

Source of the values: patent US4409238A, “Insecticides and insecticidal compositions” (Kuraray Co., Ltd., priority 1977, dated 1983).
